Source: article PMC10174255, “Drug repurposing approach against chikungunya virus: an in vitro and in silico study” (Frontiers in Cellular and Infection Microbiology, 2023)
Where “and” joins values, the source holds several entries; their conditions need not be identical. Identical values can stand only once.

What was measured:
CHIKV [1] = assay: Viral attachment assay; conditions: 1.56 µM and 0.78 µM, at 4°C and 37°C
CHIKV [2] = assay: Viral entry assay; conditions: 1.56 µM
Vero CCL-81 cells = assay: MTT cytotoxicity assay; conditions: Vero CCL-81, ≥90% cell viability
MTT cytotoxicity assay = conditions: African green monkey
CHIKV [3] = assay: Antiviral assay (pre-, co-, posttreatment) with FFU readout; conditions: for anti chikungunya activity: Vero CCL-81, any treatment condition; for IC50 / anti-CHIKV activity in primary screening: FFU; for IC50: Vero CCL-81; for anti-CHIKV activity in primary screening: highest nontoxic concentration
CHIKV [4] = assay: Viral RNA copy number by quantitative RT-PCR
CHIKV [5] = assay: Time-of-addition assay (extra- and intracellular virus, FFU); conditions: for reduction in extracellular virus titer compared to VC / reduction in intracellular virus titer compared to VC: 50 µM
CHIKV [6] = assay: Western blot of viral capsid (C) protein; assay type: cell-based, Chikungunya virus; conditions: posttreatment, maximal non-toxic concentration, normalized to β-actin
Description: To investigate the expression of viral proteins, a western blotting assay was performed. […] The cell cultures were subjected to different types of treatment with various concentrations of the appropriate drugs. Cells were lysed using the RIPA buffer and 2X laemmli buffer at 1:1 ratio. The cell culture lysates from uninfected, infected without treatment and infected treated cells were subjected to an electrophoretic run on 10% discontinuous SDS polyacrylamide gels followed by electroblotting onto nitrocellulose membranes. The membranes were then blocked for 30 minutes using phosphate-buffered saline (PBS) containing 5% bovine serum albumin. […] This monoclonal antibody is known to react with the capsid protein of CHIKV and was characterized and purified as described earlier ([Damle et al., 2016]). The membranes were thoroughly rinsed with tris-buffered saline with 0.1% Tween 20 (TBST) after overnight incubation (5 washes totaling a 20-minute soak with rocking), and then they were incubated with the appropriate horseradish peroxidase (HRP) conjugated anti-mouse IgG antibody for two hours while rocking. For developing the blot, ECL substrate (Thermo Scientific) was used in the dark. The image of the blot was captured using the Gel Documentation system (BioRad™, USA), and analysis was done. To quantify the protein signals (density) of the viral protein and housekeeping protein in each lane, ImageJ software was used. After calculating the signal values for each band, the background signals were subtracted from the signal. The relative level of viral protein was normalized to beta-actin (monoclonal antibody 15G5A11/E2, catalog no:MA1-140, Invitrogen, USA). Signal densities were determined using ImageJ software and were plotted using GraphPad Prism software version 7.

CHIKV [7] = assay: Immunofluorescence assay (percent infected cells); conditions: posttreatment, IFA, compared to VC

C[C@H](N[C@@H](CCc1ccccc1)C(=O)O)C(=O)N1CCC[C@H]1C(=O)O [Enalaprilat]
effect on virus attachment (CHIKV [1]): shown to influence virus attachment
effect on virus titer in virus entry assay (CHIKV [2]): affects the virus titer
The maximum nontoxic concentration used for primary screening of drugs against CHIKV (Vero CCL-81 cells): 1.56 µM
CC50 (MTT cytotoxicity assay): 83 ± 18.7 µM
anti chikungunya activity (CHIKV [3]): exhibit anti chikungunya activity
Selectivity Index (SI) (CHIKV [3]; cotreatment): 167.42
mean log10 viral titer/ml (CHIKV [3]; cotreatment, 0.78 µM, VC 8.194): 7.297 log10 FFU/ml
mean log10 viral titer/ml (CHIKV [3]; cotreatment, 1.56 µM, VC 8.194): 7.052 log10 FFU/ml
IC50 (CHIKV [3]; cotreatment): 0.496 µM
anti-CHIKV activity in primary screening (CHIKV [3]; cotreatment): effective
anti-CHIKV activity in primary screening (CHIKV [3]; posttreatment): did not affect
effect on viral RNA titer (CHIKV [4]; cotreatment): No significant reduction

CO[C@H]1C[C@@H]2CC[C@@H](C)[C@@](O)(O2)C(=O)C(=O)N2CCCC[C@H]2C(=O)O[C@H]([C@H](C)C[C@@H]2CC[C@@H](OC(=O)C(C)(CO)CO)[C@H](OC)C2)CC(=O)[C@H](C)/C=C(\C)[C@@H](O)[C@@H](OC)C(=O)[C@H](C)C[C@H](C)/C=C/C=C/C=C/1C [Temsirolimus]
reduction in extracellular virus titer compared to VC (CHIKV [5]; added at 0 h and 3 h): ~ 4 log10
reduction in intracellular virus titer compared to VC (CHIKV [5]; added at 0 h and 3 h): ~ 3 log10
reduction in extracellular virus titer compared to VC (CHIKV [5]; added at 6 h): ~ 3 log10
reduction in intracellular virus titer compared to VC (CHIKV [5]; added at 6 h): ~ 2 log10
effectiveness at time points of addition (CHIKV [5]; added 0, 3 and 6 h post infection): effective at all the three time points
viral antigen (C protein) expression (CHIKV [6]): significant reduction
reduction in percentage of infected cells (CHIKV [7]): prominently observed
The maximum nontoxic concentration used for primary screening of drugs against CHIKV (Vero CCL-81 cells): 50 µM
CC50 (MTT cytotoxicity assay): 413 ± 378 µM
anti chikungunya activity (CHIKV [3]): exhibit anti chikungunya activity
reduction of CHIKV titre compared to VC (CHIKV [3]; discussion summary): 4-5 log10
Selectivity Index (SI) (CHIKV [3]; posttreatment): 68.41
mean log10 viral titer/ml (CHIKV [3]; posttreatment, 25 µM, VC 8.870): 7.903 log10 FFU/ml
mean log10 viral titer/ml (CHIKV [3]; posttreatment, 50 µM, VC 8.870): 3.678 log10 FFU/ml
IC50 (CHIKV [3]; posttreatment): 6.04 µM
anti-CHIKV activity in primary screening (CHIKV [3]; posttreatment): effective
Selectivity Index (SI) (CHIKV [3]; pretreatment): 85.1 and 85.11
mean log10 viral titer/ml (CHIKV [3]; pretreatment, 25 µM, VC 8.665): 7.279 log10 FFU/ml
IC50 (CHIKV [3]; pretreatment): 4.86 µM
anti-CHIKV activity in primary screening (CHIKV [3]; pretreatment): effective
decrease in RNA copy number of CHIKV compared to VC (CHIKV [4]; posttreatment, 50 µM): 2.487 log10
decrease in viral RNA copy number compared to VC (CHIKV [4]; pretreatment, 50 µM): 0.809 log10
